Key:
[1] = system: L1210; assay: Cytotoxicity against Mus musculus (mouse) L1210 cells assessed as growth inhibition after 72 hr by MTT assay; type: functional, cell-based; details: L1210, 72 h
[2] = system: B16; assay: Cytotoxicity against Mus musculus (mouse) B16 cells assessed as growth inhibition after 72 hr by MTT assay; type: functional, cell-based; details: B16, 72 h

Row | Compound | IC50 [1] | IC50 [2]
1 | CN(C)c1ccc(/C=C2\CNC/C(=C\c3ccc(N(C)C)cc3)C2=O)cc1 | 42.5 µM | 32.5 µM
2 | COc1ccc(OC)c(/C=C2\CNC/C(=C\c3cc(OC)ccc3OC)C2=O)c1 | 0.3 µM | 0.3 µM
3 | COc1cc(/C=C2\CNC/C(=C\c3cc(OC)cc(OC)c3)C2=O)cc(OC)c1 | 0.3 µM | 0.3 µM
4 | COc1cccc(/C=C2\CNC/C(=C\c3cccc(OC)c3)C2=O)c1 | 4.3 µM | 1.9 µM
5 | COc1cc(OC)c(/C=C2\CNC/C(=C\c3c(OC)cc(OC)cc3OC)C2=O)c(OC)c1 | 1.1 µM | 0.2 µM
6 | CN1C/C(=C\c2ccc(N(C)C)cc2)C(=O)/C(=C/c2ccc(N(C)C)cc2)C1 | 28.5 µM | 23.5 µM
7 | COc1ccc(/C=C2\CNC/C(=C\c3ccc(OC)nc3)C2=O)cn1 | 2.8 µM | 3.6 µM
8 | O=C1/C(=C/c2ccc(Cl)c(Cl)c2)CNC/C1=C\c1ccc(Cl)c(Cl)c1 | 3.6 µM | 4.1 µM
9 | CCN(CC)c1ccc(/C=C2\CN(C)C/C(=C\c3ccc(N(CC)CC)cc3)C2=O)cc1 | 3.3 µM | 33 µM
10 | CN1C/C(=C\c2ccc(F)cc2)C(=O)/C(=C/c2ccc(F)cc2)C1 | 31 µM | 6.5 µM
11 | CN1C/C(=C\c2ccc(Cl)cc2)C(=O)/C(=C/c2ccc(Cl)cc2)C1 | 10 µM | 3.8 µM
12 | O=C1/C(=C/c2ccc(Cl)cc2)CNC/C1=C\c1ccc(Cl)cc1 | 7 µM | 4 µM
13 | O=C1/C(=C/c2ccc(O)c([N+](=O)[O-])c2)CNC/C1=C\c1ccc(O)c([N+](=O)[O-])c1 | 2 µM | 7.3 µM
14 | O=C1/C(=C/c2ccc(F)cc2)CNC/C1=C\c1ccc(F)cc1 | 24.5 µM | 3.8 µM
15 | O=C1/C(=C/c2cccc(Br)c2)CNC/C1=C\c1cccc(Br)c1 | > 100 µM | 2.1 µM
16 | O=C1/C(=C/c2ccc3c(c2)OCO3)CNC/C1=C\c1ccc2c(c1)OCO2 | 12.5 µM | 25 µM
17 | O=C1/C(=C/c2cccc(O)c2)CNC/C1=C\c1cccc(O)c1 | 2.3 µM | 0.7 µM
18 | CCN(CC)c1ccc(/C=C2\CNC/C(=C\c3ccc(N(CC)CC)cc3)C2=O)cc1 | 35 µM | 1.5 µM
19 | CCN(CC)c1ccc2cc(/C=C3\CNC/C(=C\c4cc5ccc(N(CC)CC)cc5oc4=O)C3=O)c(=O)oc2c1 | 29 µM | 44 µM
20 | CN1C/C(=C\c2cccc(Br)c2)C(=O)/C(=C/c2cccc(Br)c2)C1 | 5 µM | 2.1 µM

From ChEMBL document CHEMBL3045964, “Synthesis, cytotoxicity, and structureactivity insight of NH- and N-methyl-3,5-bis-(arylidenyl)-4-piperidones” (Med Chem Res, 2013)
